From ChEMBL document CHEMBL5729211, “Amine compound for inhibiting SSAO/VAP-1 and use thereof” (2022)

Biological target: T1, Amine oxidase [copper-containing] 3 (Homo sapiens, UniProt Q16853)
T1 sequence (Q16853 whole entry): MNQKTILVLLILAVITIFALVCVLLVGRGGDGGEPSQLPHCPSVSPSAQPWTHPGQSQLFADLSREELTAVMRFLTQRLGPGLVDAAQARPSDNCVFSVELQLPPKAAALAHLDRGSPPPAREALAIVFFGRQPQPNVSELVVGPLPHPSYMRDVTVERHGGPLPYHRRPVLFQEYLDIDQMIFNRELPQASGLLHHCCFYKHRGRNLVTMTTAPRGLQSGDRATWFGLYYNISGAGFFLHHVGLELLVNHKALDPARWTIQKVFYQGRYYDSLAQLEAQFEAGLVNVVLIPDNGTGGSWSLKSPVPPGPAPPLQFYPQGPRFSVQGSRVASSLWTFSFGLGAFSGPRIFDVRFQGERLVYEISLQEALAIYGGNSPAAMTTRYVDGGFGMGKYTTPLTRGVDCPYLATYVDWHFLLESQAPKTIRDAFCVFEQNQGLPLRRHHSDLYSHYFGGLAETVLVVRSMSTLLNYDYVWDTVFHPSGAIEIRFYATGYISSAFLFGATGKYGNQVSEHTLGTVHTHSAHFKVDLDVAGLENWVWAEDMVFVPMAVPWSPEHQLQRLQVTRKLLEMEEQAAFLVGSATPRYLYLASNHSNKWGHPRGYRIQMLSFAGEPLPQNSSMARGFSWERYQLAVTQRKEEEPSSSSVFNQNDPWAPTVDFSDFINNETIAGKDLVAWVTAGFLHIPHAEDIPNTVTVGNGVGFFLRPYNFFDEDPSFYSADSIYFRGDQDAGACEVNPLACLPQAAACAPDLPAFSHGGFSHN
Assay: Biological Assay: 1. Determination of Inhibitory Activity of Human Recombinant SSAO/VAP-1Test purpose: The following methods can be used to determine the inhibitory activity of the compounds described in the examples of the invention for human recombinant SSAO/VAP-1.Test Materials:Human recombinant SSAO/VAP-1 (VAP-1, human) purchased from Sigma, Cat. No. SRP6241;Amplex® Red Monoamine Oxidase Assay Kit purchased from Invitrogen, Cat. No. A12214;384-Well plate purchased from Corning, Cat. No. 6005174;Amplex® Red Hydrogen PeroxidePeroxidase Assay Kit purchased from Invitrogen, Cat. No. A22188.Benzylamine hydrochloride purchased from Sigma, Cat. No. B5136-25G;DMSO (Dimethyl Sulfoxide) purchased from Sigma, Cat. No. D2650-100ML;Test Method:The test compound was dissolved in DMSO and diluted to 10 concentrations in 4-fold serial dilution. In 384 well plates, 25 μL of human recombinant SSAO/VAP-1 (1.6 μg/ml) was added to each well. 100 nL of test compounds with different concentrations were added to each well containing human recombinant SSAO/VAP-1 and incubated at room temperature for 30 min. After 30 min incubation, 25 μl of Amplex® red monoamine oxidase assay kit (containing a reaction mixture of 200 μm Amplex Red reagent, 1 U/ml HRP and 1 mm benzylamine hydrochloride) was added to the corresponding well, and incubated at room temperature and dark for 60 min. After 60 min, the relative fluorescence unit (RFU) was read by using PerkinElmer's Envision at 530-560 nm excitation and 590 nm emission. The curve was drawn by using the graph pad prism 5 software, and the IC50 value was calculated. The results were shown in table 1, wherein the compound listed in table 1 is the compound in the preparation examples with the same compound number:

| IC50 | SMILES |
| --- | --- |
| 0.22 nM | NC/C(=C\F)COc1ccc2c(c1)CCN(CC1CCOCC1)C2=O |
| 1.44 nM | COc1ncc(N2CCc3cc(OC/C(=C/F)CN)ccc3C2=O)cn1 |
| 0.77 nM | NC/C(=C/F)COc1ccc2c(c1)CCN(c1ccccn1)C2=O |
